# Experimental data from patent US20090111801A1, “SUBSTITUTED PYRAZINONE DERIVATIVES FOR USE AS A MEDICINE” (Janssen Pharmaceutica N.V., priority 2006, published 2009).
# Tests used:
# [1] = target: T1, hα2A receptor (Homo sapiens, UniProt P08913); assay: Radioligand binding experiment for α2A-adrenoceptor ([3H]raulwolscine, CHO cell membranes); details: [3H]raulwolscine binding; for IC50: read-out: h-α2A pIC50 (converted)
# T1 construct: expressed in transfected cells; host or cells: CHO cells, stably transfected; membrane preparation
# T1 sequence (P08913 1-465): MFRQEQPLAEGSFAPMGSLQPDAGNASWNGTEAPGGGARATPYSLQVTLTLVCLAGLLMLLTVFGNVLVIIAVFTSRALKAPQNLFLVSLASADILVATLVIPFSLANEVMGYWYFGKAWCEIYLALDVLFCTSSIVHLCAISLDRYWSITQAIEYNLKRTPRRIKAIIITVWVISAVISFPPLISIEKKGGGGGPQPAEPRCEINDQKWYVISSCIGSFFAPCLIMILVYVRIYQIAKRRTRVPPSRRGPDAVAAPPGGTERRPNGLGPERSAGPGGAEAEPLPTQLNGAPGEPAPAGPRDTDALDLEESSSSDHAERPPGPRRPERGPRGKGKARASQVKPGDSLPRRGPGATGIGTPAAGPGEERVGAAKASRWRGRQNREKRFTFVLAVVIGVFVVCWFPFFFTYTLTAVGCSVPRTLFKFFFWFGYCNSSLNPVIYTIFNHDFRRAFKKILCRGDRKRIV
# [2] = target: T2, hα2C receptor (Homo sapiens, UniProt P18825); assay: Radioligand binding experiment for α2C-adrenoceptor ([3H]raulwolscine, CHO cell membranes); details: [3H]raulwolscine binding; for IC50: read-out: h-α2C pIC50 (converted)
# T2 construct: expressed in transfected cells; host or cells: CHO cells, stably transfected; membrane preparation
# T2 sequence (P18825 1-462): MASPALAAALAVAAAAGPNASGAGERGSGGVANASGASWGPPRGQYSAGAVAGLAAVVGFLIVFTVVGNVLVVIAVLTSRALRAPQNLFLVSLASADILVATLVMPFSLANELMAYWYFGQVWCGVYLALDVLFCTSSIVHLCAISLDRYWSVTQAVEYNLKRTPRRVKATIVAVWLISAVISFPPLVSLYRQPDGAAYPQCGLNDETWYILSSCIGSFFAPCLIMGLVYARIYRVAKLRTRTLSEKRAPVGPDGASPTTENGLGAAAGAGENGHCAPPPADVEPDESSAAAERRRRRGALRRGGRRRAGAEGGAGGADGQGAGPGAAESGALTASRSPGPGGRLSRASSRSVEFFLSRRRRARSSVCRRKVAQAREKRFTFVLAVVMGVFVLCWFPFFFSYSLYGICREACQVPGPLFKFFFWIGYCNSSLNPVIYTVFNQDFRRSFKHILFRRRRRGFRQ
# [3] = target: T3, 5HT-Transporter (Homo sapiens, UniProt P31645); assay: Binding experiment for the 5HT-transporter ([3H]paroxetine, human platelet membranes); details: [3H]paroxetine 0.5 nM; for IC50: read-out: h-5HTT pIC50 (converted)
# T3 construct: Human platelet membranes (Oceanix Biosciences Corporation, Hanover, Md., USA) were thawed; tissue Oceanix Biosciences Corporation, Hanover, Md., USA; host or cells: human platelet membranes
# In short: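 Competition binding of [3H]paroxetine to human platelet membranes in Tris-HCl 50 mM, 120 mM NaCl, 5 mM KCl, with filtration and scintillation counting.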
# T3 sequence (P31645 whole entry): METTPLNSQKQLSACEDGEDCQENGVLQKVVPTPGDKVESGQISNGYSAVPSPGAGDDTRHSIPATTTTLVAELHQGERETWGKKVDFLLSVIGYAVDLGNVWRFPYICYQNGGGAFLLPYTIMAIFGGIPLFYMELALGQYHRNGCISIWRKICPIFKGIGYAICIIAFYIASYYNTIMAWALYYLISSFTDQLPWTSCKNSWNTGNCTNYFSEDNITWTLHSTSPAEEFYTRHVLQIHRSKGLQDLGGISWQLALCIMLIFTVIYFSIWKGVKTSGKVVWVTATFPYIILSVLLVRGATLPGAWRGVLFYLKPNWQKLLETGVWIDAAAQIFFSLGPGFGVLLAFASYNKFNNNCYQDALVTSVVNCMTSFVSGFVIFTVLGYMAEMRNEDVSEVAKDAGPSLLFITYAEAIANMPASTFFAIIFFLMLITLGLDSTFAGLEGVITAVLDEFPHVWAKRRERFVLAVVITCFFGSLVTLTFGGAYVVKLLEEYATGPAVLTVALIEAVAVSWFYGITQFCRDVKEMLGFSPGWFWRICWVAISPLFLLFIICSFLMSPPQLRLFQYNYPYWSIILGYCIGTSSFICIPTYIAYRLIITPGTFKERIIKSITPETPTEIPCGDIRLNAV
compound,measurement,setting,value
O=c1c(NC2CCN(C/C=C/c3ccccc3)CC2)nccn1CC1CCCCO1 (stereo not drawn) [16-19],IC50,[1],1.58 µM
same,IC50,[2],0.316 µM
same,IC50,[3],5.01 µM
C/C(=C\c1ccccc1)CN1CCC(Nc2nccn(CC(=O)N(C)CCc3ccccc3)c2=O)CC1 [1-61],IC50,[1],0.1 µM
same,IC50,[2],0.00631 µM
same,IC50,[3],1.26 µM
C/C(=C\c1ccccc1)CN1CCC(Nc2nccn(Cc3ccc(CNC(=O)c4ccccc4)cc3)c2=O)CC1 [1-73],IC50,[1],0.158 µM
same,IC50,[2],0.0316 µM
same,IC50,[3],0.316 µM
O=c1c(NC2CCN(C/C=C/c3ccccc3)CC2)nccn1Cc1cccc(Br)c1 [16-16],IC50,[1],0.501 µM
same,IC50,[2],0.2 µM
same,IC50,[3],1 µM
C/C(=C\c1ccccc1)CN1CCN(c2nccn(CC(=O)N(C)C)c2=O)CC1 [8-2],IC50,[1],1.58 µM
same,IC50,[2],0.158 µM
same,IC50,[3],> 10 µM
COc1ccc(Cn2c(-c3cccc(Br)c3)c(Cl)nc(NC3CCN(C/C(C)=C/c4ccccc4)CC3)c2=O)cc1 [17-2],IC50,[1],0.794 µM
same,IC50,[2],0.501 µM
same,IC50,[3],1.58 µM
C/C(=C\c1ccccc1)CN1CCC(Nc2nccn(Cc3ccccc3C(F)(F)F)c2=O)CC1 [5-21],IC50,[1],0.158 µM
same,IC50,[2],0.0251 µM
same,IC50,[3],0.398 µM
C/C(=C\c1ccccc1)CN1CCC(Nc2nccn(-c3ccc(-c4ccccc4)cc3)c2=O)CC1 [5-30],IC50,[1],0.0251 µM
same,IC50,[2],0.00794 µM
same,IC50,[3],0.398 µM
C/C(=C\c1ccccc1)CN1CCC(Nc2nccn(CC(=O)N(CCN(C)C)Cc3ccc(F)cc3)c2=O)CC1 [1-113],IC50,[1],0.126 µM
same,IC50,[2],0.00398 µM
same,IC50,[3],7.94 µM
O=c1c(NC2CCN(C/C=C/c3ccccc3)CC2)nccn1CC1CCCCC1 [16-23],IC50,[1],0.631 µM
same,IC50,[2],0.316 µM
same,IC50,[3],1.26 µM
C/C(=C\c1ccccc1)CN1CCC(Nc2nccn(Cc3ccc(S(C)(=O)=O)cc3)c2=O)CC1 [5-26],IC50,[1],0.126 µM
same,IC50,[2],0.0251 µM
same,IC50,[3],1.26 µM
C/C(=C\c1ccccc1)CN1CCC(Nc2nccn(CC(=O)Nc3ccc(F)cc3)c2=O)CC1 [1-42],IC50,[1],0.1 µM
same,IC50,[2],0.00398 µM
same,IC50,[3],0.501 µM
CCN(Cc1ccncc1)C(=O)Cn1ccnc(NC2CCN(C/C(C)=C/c3ccccc3)CC2)c1=O [1-142],IC50,[1],0.158 µM
same,IC50,[2],0.00316 µM
same,IC50,[3],1 µM
C/C(=C\c1ccccc1)CN1CCC(Nc2nccn(-c3ccc(NC(=O)CC4CCCC4)cc3)c2=O)CC1 [1-35],IC50,[1],0.251 µM
same,IC50,[2],0.0501 µM
same,IC50,[3],1.26 µM
C/C(=C\c1ccccc1)CN1CCC(Nc2nccn(CC(=O)C34CC5CC(CC(C5)C3)C4)c2=O)CC1 [7-10],IC50,[1],0.0501 µM
same,IC50,[2],0.01 µM
same,IC50,[3],1.26 µM
C/C(=C\c1ccccc1)CN1CCC(Nc2nccn(CC(=O)N3CCN(C)CC3)c2=O)CC1 [2-20],IC50,[1],0.0631 µM
same,IC50,[2],0.00316 µM
same,IC50,[3],2.51 µM
C/C(=C\c1ccccc1)CN1CCC(Nc2nccn(CC(=O)N(CCCN3CCCC3=O)Cc3ccc(F)cc3)c2=O)CC1 [1-139],IC50,[1],0.2 µM
same,IC50,[2],0.00316 µM
same,IC50,[3],2.51 µM
O=c1c(NC2CCN(C/C=C/c3ccccc3)CC2)nccn1CCN1CCCCC1 [16-6],IC50,[1],0.794 µM
same,IC50,[2],0.0631 µM
same,IC50,[3],> 10 µM
C/C(=C\c1ccccc1)CN1CCC(Nc2nccn(CC(=O)OCc3ccccc3)c2=O)CC1 [3-20],IC50,[1],0.1 µM
same,IC50,[2],0.0158 µM
same,IC50,[3],3.98 µM
C/C(=C\c1ccccc1)CN1CCC(Nc2nccn(-c3cccc(Nc4ccc(F)cc4)c3)c2=O)CC1 [1-43],IC50,[1],0.0126 µM
same,IC50,[2],0.00316 µM
same,IC50,[3],0.0501 µM
C/C(=C\c1ccccc1)CN1CCC(Nc2nccn(CC(=O)c3cccc(-c4ccccc4)c3)c2=O)CC1 [5-33],IC50,[1],0.0794 µM
same,IC50,[2],0.1 µM
same,IC50,[3],1.26 µM
C/C(=C\c1ccccc1)CN1CCC(Nc2nccn(Cc3ccccc3C#N)c2=O)CC1 [5-19],IC50,[1],0.1 µM
same,IC50,[2],0.02 µM
same,IC50,[3],0.398 µM
C/C(=C\c1ccccc1)CN1CCC(Nc2nccn(CCCN(C)CC(=O)c3ccccc3)c2=O)CC1 [1-84],IC50,[1],0.1 µM
same,IC50,[2],0.01 µM
same,IC50,[3],1.26 µM
C/C(=C\c1ccccc1)CN1CCN(c2nccn(CCOc3ccccc3)c2=O)CC1 [10-2],IC50,[1],0.251 µM
same,IC50,[2],0.1 µM
same,IC50,[3],1.26 µM
CC(=O)NCc1ccc(Cn2ccnc(NC3CCN(C/C(C)=C/c4ccccc4)CC3)c2=O)cc1 [1-30],IC50,[1],0.158 µM
same,IC50,[2],0.0316 µM
same,IC50,[3],1.26 µM
COC(=O)CCNC(=O)Cn1ccnc(NC2CCN(C/C(C)=C/c3ccccc3)CC2)c1=O [1-94],IC50,[1],0.158 µM
same,IC50,[2],0.00398 µM
same,IC50,[3],2.51 µM
C/C(=C\c1ccccc1)CN1CCC(Nc2nccn(CC3CCCCC3)c2=O)CC1 [7-6],IC50,[1],0.2 µM
same,IC50,[2],0.0501 µM
same,IC50,[3],1.58 µM
C/C(=C\c1ccccc1)CN1CCC(Nc2nccn(-c3ccc(CN4C(=O)c5ccccc5C4=O)cc3)c2=O)CC1 [2-55],h-α2A pIC50,[1],6.8
same,h-α2C pIC50,[2],8.0
same,h-5HTT pIC50,[3],6.6
CCCn1ccnc(NC2CCN(C/C(C)=C/c3ccccc3)CC2)c1=O [7-4],IC50,[1],0.0251 µM
same,IC50,[2],0.0126 µM
same,IC50,[3],0.631 µM
COC(=O)CN(C)Cc1ccc(-n2ccnc(NC3CCN(C/C(C)=C/c4ccccc4)CC3)c2=O)cc1 [1-99],IC50,[1],0.0794 µM
same,IC50,[2],0.00501 µM
same,IC50,[3],1 µM
C/C(=C\c1ccccc1)CN1CCC(Nc2nccn(-c3cccc(NCc4ccccc4)c3)c2=O)CC1 [1-49],IC50,[1],0.0251 µM
same,IC50,[2],0.00398 µM
same,IC50,[3],0.251 µM
C/C(=C\c1ccccc1)CN1CCC(Nc2nccn(-c3cccc(N4CCN(c5ccccc5)CC4)c3)c2=O)CC1 [2-27],IC50,[1],0.0316 µM
same,IC50,[2],0.02 µM
same,IC50,[3],0.2 µM
C/C(=C\c1ccccc1)CN1CCC(Nc2nccn(Cc3ccc(C)cc3)c2=O)CC1 [5-9],IC50,[1],0.158 µM
same,IC50,[2],0.0501 µM
same,IC50,[3],1 µM
CSc1ccc(-n2ccnc(NC3CCN(C/C(C)=C/c4ccccc4)CC3)c2=O)cc1 [4-2],IC50,[1],0.0126 µM
same,IC50,[2],0.00631 µM
same,IC50,[3],0.158 µM
COCCOCCn1ccnc(N(C)C2CCN(C/C(C)=C/c3ccccc3)CC2)c1=O [15-5],IC50,[1],0.126 µM
same,IC50,[2],0.0398 µM
same,IC50,[3],2 µM
C/C(=C\c1ccccc1)CN1CCC(Nc2nccn(Cc3ccccc3Br)c2=O)CC1 [5-14],IC50,[1],0.0501 µM
same,IC50,[2],0.0126 µM
same,IC50,[3],0.2 µM
CCCCN(Cc1ccccc1)C(=O)Cn1ccnc(NC2CCN(C/C(C)=C/c3ccccc3)CC2)c1=O [1-66],IC50,[1],0.0794 µM
same,IC50,[2],0.0126 µM
same,IC50,[3],0.794 µM
COc1ccc(Cn2ccnc(NC3CCN(C/C(C)=C/c4ccccc4)CC3)c2=O)cc1 [3-11],IC50,[1],0.02 µM
same,IC50,[2],0.0316 µM
same,IC50,[3],0.501 µM
COC(=O)CCNCc1ccc(-n2ccnc(NC3CCN(C/C(C)=C/c4ccccc4)CC3)c2=O)cc1 [1-96],h-α2A pIC50,[1],7.1
same,h-α2C pIC50,[2],8.6
same,h-5HTT pIC50,[3],6.0
C/C(=C\c1ccccc1)CN1CCC(Nc2nccn(CC(=O)NCc3cccnc3)c2=O)CC1 [1-141],IC50,[1],0.1 µM
same,IC50,[2],0.00631 µM
same,IC50,[3],1.58 µM
C/C(=C\c1ccccc1)CN1CCC(Nc2nccn(Cc3cccc(CN4CCOCC4)c3)c2=O)CC1 [2-45],IC50,[1],0.0501 µM
same,IC50,[2],0.01 µM
same,IC50,[3],0.794 µM
C/C(=C\c1ccccc1)CN1CCC(Nc2nccn(Cc3ccc(CNC(=O)NC4CCCCC4)cc3)c2=O)CC1 [1-118],IC50,[1],0.398 µM
same,IC50,[2],0.0794 µM
same,IC50,[3],0.501 µM
COc1cc(CNC(=O)NCc2ccc(Cn3ccnc(NC4CCN(C/C(C)=C/c5ccccc5)CC4)c3=O)cc2)cc(OC)c1 [1-126],IC50,[1],0.251 µM
same,IC50,[2],0.0398 µM
same,IC50,[3],0.501 µM
C/C(=C\c1ccccc1)CN1CCC(Nc2nccn(CC(=O)N(Cc3ccccc3)c3ccccc3)c2=O)CC1 [1-69],IC50,[1],0.158 µM
same,IC50,[2],0.0398 µM
same,IC50,[3],0.794 µM
C/C(=C\c1ccccc1)CN1CCN(c2nccn(CC(=O)c3ccc(-c4ccccc4)cc3)c2=O)CC1 [12-6],IC50,[1],0.398 µM
same,IC50,[2],0.251 µM
same,IC50,[3],2 µM
CC(=O)N1CCN(Cc2ccc(-n3ccnc(NC4CCN(C/C(C)=C/c5ccccc5)CC4)c3=O)cc2)CC1 [2-23],h-α2A pIC50,[1],6.1
same,h-α2C pIC50,[2],7.4
same,h-5HTT pIC50,[3],5.1
CC(C)(C)OC(=O)NCCCn1ccnc(NC2CCN(C/C=C/c3ccccc3)CC2)c1=O [16-4],IC50,[1],0.398 µM
same,IC50,[2],0.0398 µM
same,IC50,[3],1.26 µM
